Reference: patent US20220324835A1 (Nurix Therapeutics, Inc., priority 2018, published 2022)

Experiments:
Cbl-b [1] = molecular target: T1, Cbl-b (Homo sapiens, UniProt Q13191); assay: Cbl-b inhibition assay (Cbl-b activity assay, FRET, Biological Example 1; 100 mM NaCl, 60 nM Src kinase); format: biochemical; conditions: upper bound stated in text lists; read-out: IC50 values in the Cbl-b inhibition assay of Biological Example 1
In short: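 FRET read-out: loss of signal marks inhibition. Mix = biotin-Avi-Cbl-b (N-term), Src kinase, UbcH5B-Ub(Bodipy-FL, irreversible conjugate), streptavidin-Tb, assay buffer.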

T-cell [2] = assay: IL-2 secretion from T-cells co-stimulated with anti-CD3 and anti-CD28 antibody (Biological Example 2); format: cell-based, human; conditions: Homo sapiens, T-cell, primary human total T-cells, baseline = anti-CD3/anti-CD28 stimulated cells without inhibitor, read-out: IL-2 secretion, Anti-CD3/Anti-CD28 stimulation, fold change over baseline; for fold induction at 0.3 µM: 0.3 μM compound; for fold induction at 1 µM: 1 μM compound; for fold induction at 4 µM: 4 μM compound
In short: (§1)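 Values are fold-change over baseline: readings (IL-2 release, CD25 staining) from inhibitor-treated T-cells divided against untreated cells […]. No detailed procedure stated.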

T-cell [3] = assay: CD25 cell surface staining on T-cells co-stimulated with anti-CD3 and anti-CD28 antibody (Biological Example 2); format: cell-based, human; conditions: Homo sapiens, T-cell, primary human total T-cells, baseline = anti-CD3/anti-CD28 stimulated cells without inhibitor, read-out: CD25 staining, Anti-CD3/Anti-CD28 stimulation, fold change over baseline; for fold induction at 0.3 µM: 0.3 μM compound; for fold induction at 1 µM: 1 μM compound; for fold induction at 4 µM: 4 μM compound
In short: as §1

Cbl-b [4] = molecular target: T1, Cbl-b; assay: Cbl-b activity assay (Cbl-b inhibition assay), TR-FRET of Cbl-b interaction with UbcH5B-Ub; format: biochemical; conditions: assay buffer with 100 mM NaCl, 60 nM Src kinase; read-out: Cbl-b activity IC50
In short: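 Compound-treated Cbl-b was incubated 1.5 h with Src kinase (60 nM final; 30 nM for asterisked values, which also used 50 mM instead of 100 mM NaCl), 1 mM ATP and 5 mM MgCl2. Binding to fluorescent Ub-loaded UbcH5B (C85K mutant) was then read by TR-FRET after 1 h more.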

Cbl-b (residues 36-427) = Cbl-b (residues 36-427) (Homo sapiens, UniProt Q13191); assay: Cbl-b binding assay (SPR, Biacore T200); conditions: 20° C., 1:1 binding model
In short: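 NeutrAvidin capture chip, 20° C; 50 s injections at 50 μl/min, 90-180 s dissociation; 0.3 M NaCl regeneration. Asterisked column: 50 mM NaCl buffer and 30 nM Src kinase in place of 100 mM NaCl and 60 nM Src kinase. 1:1 fit.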

T-cell [5] = assay: IL-2 secretion from T-cells stimulated with anti-CD3 antibody alone (Biological Example 2); format: cell-based; conditions: primary human total T-cells, read-out: IL-2 secretion, Anti-CD3 stimulation, fold change over baseline; for fold induction at 1 µM: 1 μM compound; for fold induction at 8 µM: 8 μM compound
T-cell [6] = assay: CD25 cell surface staining on T-cells stimulated with anti-CD3 antibody alone (Biological Example 2); format: cell-based; conditions: primary human total T-cells, baseline = anti-CD3/anti-CD28 stimulated cells without inhibitor, read-out: CD25 staining, Anti-CD3 stimulation, fold change over baseline; for fold induction at 1 µM: 1 μM compound; for fold induction at 8 µM: 8 μM compound

T1 sequence (Q13191 36-427): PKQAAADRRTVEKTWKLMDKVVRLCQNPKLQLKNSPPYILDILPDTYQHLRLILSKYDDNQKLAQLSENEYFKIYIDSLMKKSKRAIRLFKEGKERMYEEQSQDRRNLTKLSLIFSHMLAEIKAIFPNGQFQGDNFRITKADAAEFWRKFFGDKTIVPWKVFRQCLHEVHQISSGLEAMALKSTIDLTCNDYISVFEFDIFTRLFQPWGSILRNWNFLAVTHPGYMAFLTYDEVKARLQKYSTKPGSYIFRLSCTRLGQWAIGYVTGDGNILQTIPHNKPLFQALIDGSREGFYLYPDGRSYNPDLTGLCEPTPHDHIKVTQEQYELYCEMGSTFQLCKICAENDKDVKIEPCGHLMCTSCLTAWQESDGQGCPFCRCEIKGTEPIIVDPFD
Sequence of Cbl-b (residues 36-427) (Q13191 36-427): as above

| Structure (SMILES) | IC50 (Cbl-b [1]) | fold induction at 0.3 µM (T-cell [2]) | fold induction at 1 µM (T-cell [2]) | fold induction at 4 µM (T-cell [2]) | fold induction at 0.3 µM (T-cell [3]) | fold induction at 1 µM (T-cell [3]) | fold induction at 4 µM (T-cell [3]) | IC50 (Cbl-b [4]) | Kd (Cbl-b (residues 36-427)) | fold induction at 1 µM (T-cell [5]) | fold induction at 8 µM (T-cell [5]) | fold induction at 1 µM (T-cell [6]) | fold induction at 8 µM (T-cell [6]) |
| --- | --- | --- | --- | --- | --- | --- | --- | --- | --- | --- | --- | --- | --- |
| Cc1c[nH]nc1-c1cc2c(c(C(F)(F)F)c1)CN(c1cccc([C@H](C)Cc3nncn3C)c1)C2=O [Compound 377, 6-(4-methyl-1H-pyrazol-3-yl)-2-{3-[(2R)-1-(4-methyl-4H-1,2,4-triazol-3-yl)propan-2-yl]phenyl}-4-(trifluoromethyl)-2,3-dihydro-1H-isoindol-1-one] | ≤ 100 nM | 1.01 to 2.5 | 5 to 7.5 | > 7.5 | 1.31 to 1.5 | 1.51 to 1.75 | > 1.76 | < 100 nM | < 100 nM | > 0.201 | > 0.201 | 0.601 to 0.8 | 0.801 to 1 |
| CC(O)c1cc2c(c(C(F)(F)F)c1)CN(c1cccc([C@H](C)Cc3nncn3C)c1)C2=O (stereo partly drawn) [Compound 436, 6-(1-hydroxyethyl)-2-(3-((R)-1-(4-methyl-4H-1,2,4-triazol-3-yl)propan-2-yl)phenyl)-4-(trifluoromethyl)isoindolin-1-one] | ≤ 100 nM | 2.51 to 5 | 5 to 7.5 | > 7.5 | 1.01 to 1.3 | 1.31 to 1.5 | 1.31 to 1.5 | < 100 nM | < 100 nM | 0.151 to 0.2 | > 0.201 | 0.801 to 1 | > 1 |
| C[C@H](Cc1nncn1C)c1cccc(N2Cc3c(cc([C@@H](C)N4CC[C@H](F)C4)cc3C(F)(F)F)C2=O)c1 [Compound 403, 6-((R)-1-((S)-3-fluoropyrrolidin-1-yl)ethyl)-2-(3-((R)-1-(4-methyl-4H-1,2,4-triazol-3-yl)propan-2-yl)phenyl)-4-(trifluoromethyl)isoindolin-1-one] | ≤ 100 nM | 5 to 7.5 | > 7.5 | > 7.5 | 1.01 to 1.3 | 1.01 to 1.3 | 1.31 to 1.5 | < 100 nM | < 100 nM | 0.151 to 0.2 | > 0.201 | > 1 | > 1 |
| Cn1cnnc1CC1(c2cccc(NC(=O)c3cc(Cn4ccnn4)nc(C4CC4)n3)c2)COC1 [Compound 506, 2-cyclopropyl-N-(3-{3-[(4-methyl-1,2,4-triazol-3-yl)methyl]oxetan-3-yl}phenyl)-6-(1,2,3-triazol-1-ylmethyl)pyrimidine-4-carboxamide] | ≤ 100 nM | 1.01 to 2.5 | 2.51 to 5 | – | 1.01 to 1.3 | 1.31 to 1.5 | – | < 100 nM | < 100 nM | 0.101 to 0.15 | – | 0.801 to 1 | – |
| C[C@H](Cc1nncn1C)c1cccc(N2Cc3c(cc(CN4CC(O)C(F)(F)C4)cc3C(F)(F)F)C2=O)c1 (stereo partly drawn) [Compound 417, 6-((3,3-difluoro-4-hydroxypyrrolidin-1-yl)methyl)-2-(3-((R)-1-(4-methyl-4H-1,2,4-triazol-3-yl)propan-2-yl)phenyl)-4-(trifluoromethyl)isoindolin-1-one] | ≤ 100 nM | 2.51 to 5 | 5 to 7.5 | > 7.5 | 1.01 to 1.3 | 1.31 to 1.5 | 1.31 to 1.5 | < 100 nM | < 100 nM | 0.101 to 0.15 | > 0.201 | > 1 | > 1 |
